Test results taken from PubChem BioAssay AID493002 (Sanford-Burnham Center for Chemical Genomics, 2010).

System: S. cerevisiae tim23-1 mutant growth, luminescence
Experiment: potency against tim23-1 yeast growth – luminescence, uHTS hits, dose response (AID 493002);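 note: yeast grown roughly 22 hours at 25 °C before the luminescence read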

SMILES	IC50 [µM]
COc1cccc(C2=NN(C(=O)c3ccco3)C(c3ccco3)C2)c1 (stereo unspecified)	20.4
CC(C)(C)c1ccc(OCC(=O)NCc2ccco2)c(Br)c1	5.94
Cc1nc2c(n1C1CCCCC1)C(=O)c1ccccc1C2=O	10.8
CC1(C)CC(=O)C=C(c2cccc(Cl)c2O)C1	8.1
COc1ccc(/C=C(\C#N)c2nc3ccccc3[nH]2)cc1O	14.8
COc1ccc2c(c1)OC[C@H]1[C@H]2N2C(=O)c3cc(C)ccc3NC(=O)[C@@]2(C)[C@H]1c1ccccc1	13.1
Cc1nc2ccc(NC(=O)c3cccs3)cc2c(=O)n1Cc1ccc(Cl)cc1	12
COc1ccc(CCCC(=O)N/N=C/c2ccc(C)cc2)cc1	16.7
COc1ccc(S(=O)(=O)NCc2ccc(C)cc2)cc1	20.5
COC(=O)c1c(-c2ccc(S(C)(=O)=O)cc2)sc2ccc(OC)cc12	12
Cc1ccc(-c2nnc(C)c(N3CCCC3)n2)cc1	16.6
Cc1ccc(S(=O)(=O)n2ccc(OC(=O)c3cccs3)n2)cc1	8.39
CCCCC(=O)Nc1ccc(NC(=O)c2cccs2)cn1	18.8
O=C1/C(=C/c2ccncc2)SC(=S)N1C1CCCCC1	5.72
COc1cc(OC)cc(C(=O)Nc2ccc(Nc3ccccc3)cc2)c1	9.92
O=c1oc(-c2ccc(Br)o2)nc2ccccc12	9.8
CCC(C)c1ccc(NC(=O)COC(=O)C2CCCC2)cc1 (stereo unspecified)	10.7
COc1ccc(NC(=O)C#Cc2ccccc2)cc1	6.06
CCc1nc(SCc2ccccn2)c2c(=O)n(C)c(=O)n(C)c2n1	16.3
CCN(CC)c1ccc(C(=O)N/N=C/c2ccccc2OC(F)F)cc1	15.1
Cc1ccc(CS(=O)(=O)c2ncc(Cl)c(C(=O)Nc3ccc(OC(F)F)cc3)n2)cc1	1.86
CCCC(=O)NC(c1ccc(C(C)C)cc1)c1ccc2cccnc2c1O (stereo unspecified)	7.2
C/C(=N\Nc1ccc([N+](=O)[O-])cc1)c1ccc(O)cc1	5.17
Cc1csc2nc(O)c(C(=O)NCCC3=CCCCC3)c(=O)n12	4.88
Cc1ccc(-c2nn(-c3ccccc3)cc2NC(=O)CCl)cc1	4.31

SMILES	IC50 [µM]
O=C(Nc1ccc2oc(-c3ccccc3)nc2c1)c1cccnc1	5.53
O=C(CC(=O)c1c(F)cccc1Cl)c1ccccc1O	15.7
Cc1ccn2cc(C(=O)Nc3ccc4c(c3)OCCO4)nc2c1	7.9
CCOC(=O)c1cnc(-n2nc(C)cc2C)nc1NCCc1ccccc1	9.75
Cc1ccc(OCc2cc(C(=O)NC3CCCCC3)no2)cn1	15.4
O=c1c2cc(Br)ccc2nc(-c2ccccc2)n1O	19.1
O=C(c1cc(-c2ccc(O)cc2)on1)N1CCCc2ccccc21	12.9
Cc1cc(C)nc(SCC(=O)c2cc3ccccc3oc2=O)n1	9.91
COc1ccc(-c2cccc(NC(=O)c3cccs3)c2)nn1	14.2
CCOC(=O)Nc1ccc2c(c1)Nc1ccccc1S2	11.3
COC(=O)c1ccc(-c2ccc(C(c3c(C)[nH][nH]c3=O)c3c(C)[nH][nH]c3=O)o2)cc1	11.2
O=c1c(O)c(-c2ccccc2)oc2cc(O)cc(O)c12	8.56
O=Cc1ccccc1OCc1ccc2c(c1)OCO2	6.59
Cc1ccc(Nc2nc(Cl)c(C=O)s2)cc1Cl	5.76
Cc1ccc(S(=O)(=O)N[C@@H](Cc2ccccc2)C(=O)CCl)cc1	2.18
CCCCCCSC1=C(C#N)C(c2ccccc2)CC(=O)N1 (stereo unspecified)	13.4
COc1ccc(N2CCN(CCC(=O)c3ccc4ccccc4c3)CC2)cc1	8.84
N=c1c2c(-c3ccccc3)c(-c3ccccc3)n(Cc3ccco3)c2ncn1Cc1ccco1	9.92
O=C(NCc1cccnc1)/C(=C\c1ccc(-c2ccc(Br)cc2)o1)S(=O)(=O)c1ccccc1	4.25
Cc1cccc(C(=O)Oc2cccc3c(O)cccc23)c1	8.32
CS(=O)(=O)c1ccc2nc(NC(=O)c3ccco3)sc2c1	19.4
Cc1ccc(NC(=O)c2ccc(Cl)c(NC(=O)c3cccs3)c2)cc1	14.5
Oc1ccc(/C=N/Nc2cccc(Cl)n2)c(O)c1	10.6
COc1cccc2c1C(=O)C=C(C)C2=O	5.32
COc1ccc(C(=O)N/N=C/c2ccc(OC)c(COc3ccc(F)cc3F)c2)cc1	24.9

SMILES	IC50 [µM]
Cc1ccccc1[C@@]1(C)ON(c2ccccc2C(F)(F)F)C1=O	7.04
O=C(N/N=C/C=C\c1ccco1)c1cccs1	8.95
CC(C)c1nc(NCCO)c(C#N)c2c1CCCC2	12.4
Cc1ccn(-c2ccc(NC(=O)c3cccs3)cc2)n1	7.04
Cc1nn(CC(=O)Nc2nc3ccccc3s2)c(C)c1[N+](=O)[O-]	8.41
COCCNC(=O)/C(C#N)=C/c1ccc(OCc2ccc(F)cc2)cc1	10.5
COc1ccc2c(C(=O)CCl)c[nH]c2c1	22.5
Nc1cccc(-c2nc3ccc(C(=O)c4ccccc4)cc3[nH]2)c1	10.7
Cc1cc(C(=O)CCl)c(C)n1CCc1ccc(Cl)cc1	3.7
COc1ccc2c(c1)sc1nc(-c3ccccc3)cn12	6.68
CC(C)Oc1cc(O)c2c(=O)c(-c3ccc(O)cc3)coc2c1	7.38
Cc1ccc(NC(=O)c2nc(S(=O)(=O)Cc3ccccc3C)ncc2Cl)cc1C	3.72
O=[N+]([O-])c1cc(O)c2ncccc2c1	11.4
O=C(Nc1ccc2nc(-c3ccc(Br)o3)[nH]c2c1)c1ccco1	5.88
Cc1cccc(CN2C(=O)/C(=C\c3ccc(C(=O)NCCCN4CCN(C)CC4)cc3)Oc3ccccc32)c1	17.5
Cc1ccc(Nc2ccc([N+](=O)[O-])nc2[N+](=O)[O-])cc1	44.3
CCn1ncc([N+](=O)[O-])c1C(=O)Nc1nc2cccc(C)c2s1	17.7
COc1ccccc1C(=O)Nc1nnc(-c2ccc3c(c2)CCCC3)o1	13.8
CC1c2[nH]c3ccccc3c2CCN1C(=O)Nc1ccccc1 (stereo unspecified)	12.1
COc1ccc(C(C[N+](=O)[O-])c2c(-c3ccccc3)cc3ccccn23)cc1 (stereo unspecified)	8.82
Cn1cc(C(=O)c2ccc(Cl)cc2)cc1-c1nc2ccccc2n1C	12.3
CCOC(=O)c1c(-c2ccccc2)oc2ccc(O)cc12	7.92
Cc1ccc2c(c1)COc1c3ccc(C(=O)NC(C)C)cc3nn1-2	24
CCn1c(N2CCN(S(=O)(=O)c3ccc(OC)cc3)CC2)nc2ccccc21	8.88
O=C(Nc1ccc(Br)c(Cl)c1)c1ccco1	18.4

SMILES	IC50 [µM]
COc1cccc(C(=O)Nc2ccccc2)c1	9.33
Cc1ccccc1OCCCSc1nc2ccccc2[nH]1	9.44
CC1CCc2c(c3ccccc3n2C(=O)CCl)C1 (stereo unspecified)	3.68
COc1ccc(OCC(=O)Nc2ccc3c(c2)CCC3)cc1	15.6
COc1cccc(Nc2nc(-c3ccccc3)nc3ccccc23)c1	5.63
CC(C)CCN1C(=O)c2cccc3c(N)ccc(c23)C1=O	9.07
Oc1ccc(N=Nc2ccccc2)cc1	15.3
c1ccc(-c2cc3cc4c(cc3cn2)OCO4)cc1	17
COc1ccc(N2CCN(c3nc4cc(C)ccc4cc3C=O)CC2)cc1	24.9
Cc1ccc2c(c1)C(=O)C(=O)N2c1ccc(Cl)cc1	11.7
O=C(Nc1ccc(F)c([N+](=O)[O-])c1)c1cccs1	15.3
Oc1ccc(Cl)cc1CNc1cnc2ccccc2c1	15.3
O=C(N/N=C/c1coc2ccc(Cl)cc2c1=O)c1cc(O)cc(O)c1	5.83
Cn1c(C(=O)Nc2ccc3c(c2)OCCO3)cc2sccc21	12.1
Cc1cc(Nc2ccccc2)nn1C(=O)c1ccccc1	12
O=CN(/C=C1\Sc2ccccc2C1=O)Cc1ccccc1	7.02
Cc1nc2nc(-c3cccs3)[nH]c2cc1Br	7.8
Cc1ccc2[nH]c3ccccc3c(=O)c2c1	13.6
CC1CCN(c2nnc(N3CCC(C)CC3)c3ccccc23)CC1	34.9
O=C(N/N=C/c1ccco1)c1cc2ccccc2o1	8.47
N#Cc1c(-c2ccccc2)cc(-c2ccc(O)cc2)nc1N	5.58
Cc1ccc(-c2nc(CNC(=O)c3cc(C)on3)cs2)cc1	15
Cc1ccc(-c2nnc(N3CCN(c4ccccn4)CC3)c3ccccc23)cc1	7.64
O=c1oc(-c2ccccc2F)nc2c1cnn2-c1ccccc1	7.71
O=C(N/N=C/c1ccc(Br)s1)c1cccs1	9.05

SMILES	IC50 [µM]
CC1CCCCN1C(=O)Nc1cccc(Cl)c1 (stereo unspecified)	14.1
CCN(CC)c1ccc2c(C)c(-c3ccc(N)cc3)c(=O)oc2c1	13.9
COc1cc(/C=C/C(=O)OCC(=O)c2ccc(OC(F)F)cc2)ccc1O	14.6
CC(C)N=c1scc(-c2ccco2)n1/N=C/c1ccc(O)c(O)c1	11.9
O=C(Nc1ccc(-c2cn3c(n2)SCC3)cc1)c1ccco1	8.88
NNC(=O)c1nc(-c2ccccc2)cc(-c2ccccc2)n1	6.65
C=CCNC(=O)c1ccc2c3n(nc2c1)-c1ccc(Cl)cc1CO3	6.9
Cn1cccc1-c1nc2ccc(NC(=O)c3cccs3)cc2[nH]1	10.8
c1ccc(Nc2nc(-c3ccccc3)nc3ccccc23)cc1	5.08
C=CCN=c1scc(-c2ccco2)n1/N=C/c1ccc(O)c(O)c1O	16.1
COc1ccc(NC(=O)Nc2nc3c(s2)CCCC3)cc1	7.73
COC(=O)c1cccc(-c2ccc(C(c3c(C)[nH][nH]c3=O)c3c(C)[nH][nH]c3=O)o2)c1	15.1
CCc1sc(C(=O)Nc2ccc3c(c2)OCO3)cc1C	19.2
Cc1cccn2c(=O)c(C(=O)NC3CCCCC3)c(O)nc12	15.6
COc1ccc(/C=C/C(=O)Nc2ccc3c(c2)CCC3)cc1OC	8.81
Oc1ccc(Br)cc1/C=N/Nc1ccccn1	6.87
Cc1ccc2nc(NC(=O)Cn3nc(C)c([N+](=O)[O-])c3C)sc2c1	6.13
CN1C(=O)C(=Cc2ccccc2OS(=O)(=O)c2ccccc2)C(=O)N(C)C1=O	6.59
O=C(Nc1ccc(Br)c(Cl)c1)C1CC1	18.3
CCOC(=O)c1c(N)sc(C(=O)Nc2ccccc2)c1C	4.11
COc1cc2c3c(c1)C(C)CC(C)(C)N3C(=O)C2=O (stereo unspecified)	27.2
